From patent US5650442A (priority 1994, dated 1997) come the findings set out here.

The test system of test [1] is Chinese hamster V79 lung fibroblasts. The test is described as follows: Radiation survival of hypoxic V79 cells (metabolism-mediated oxygen depletion), clonogenic assay, SER. It counts as cell-based. To be noted: hypoxic; for SER: 1% surviving fraction level. The protocol:
Chinese hamster V79 lung fibroblasts were cultured in F12 medium supplemented with 10% fetal calf serum and antibiotics. […] The assay system was specifically designed to evaluate radiation sensitivity of cells exposed to radiation under both aerobic and hypoxic conditions (Mitchell et al., Radiat. Res., 96, 422-428 (1983); Russo et al., Radiat. Res., 103, 232-239 (1985); and DeGraff et al., Int. J. Radiat. Oncol. Biol. Phys., 16, 1021-1024 (1989)).
When cultured cells were exposed to DEA/NO in subsequent examples, DEA/NO in F12 medium with 10 mM HEPES buffer, pH 7.0, was used. […] Control cells in subsequent examples were exposed to 0.02N NaOH, instead of DEA/NO.
The induction of hypoxia in dense cell suspensions by metabolism-mediated oxygen depletion was carried out as described by Mitchell et al. (supra) and Phillips et al. (Int. J. Radiat. Oncol. Biol. Phys., 12, 1627-1635 (1986)). Briefly, stock cultures of exponentially growing Chinese hamster V79 lung fibroblasts in 850 cm^2 roller bottles were trypsinized, rinsed with medium, and counted. Samples of 10^8 cells were then placed in 15 ml centrifuge tubes, centrifuged at 1,000 rpm for 5 min at 25° C., and rinsed once with medium or medium containing DEA/NO (final concentrations ranging from 0.1-2.0 mM), nitrite, diethylamine, or DEA/NO that had been allowed to decompose in full medium overnight at 37° C.
The cell suspension was taken up into a 3 ml glass syringe with a 18 gauge spinal needle. Air bubbles were removed, and a 25 gauge needle was fitted onto the syringe. The syringe was rotated by hand at room temperature for 20 min to allow for cellular metabolic oxygen consumption. The syringe was then placed in a lucite block and irradiated. After a given dose of radiation, 1-3 drops of cell suspension were discarded, and 1-2 drops were collected in tubes containing drug-free medium. In this manner an entire hypoxic survival curve for a given treatment condition can be obtained from a single syringe.
Hypoxic Chinese hamster V79 lung fibroblasts of Example 2 were irradiated at room temperature with 4 MeV photons from a linear accelerator at a dose rate of 1.5 Gy/min. Full electron equilibrium was ensured for all irradiations.
Following irradiation, the various cell suspensions were pipetted, counted, diluted, and plated for macroscopic colony formation. Each dose determination was plated in triplicate and experiments were repeated a minimum of two times. Plates were incubated for seven days, after which colonies were fixed with methanol/acetic acid (3:1), stained with crystal violet, and counted. Colonies containing >50 cells were scored and graphed as FIGS. 1-3. Error bars in the graphs represent the standard deviation of the mean and are shown when larger than the symbol used to designate a data point. Survival curve data were fitted using a linear quadratic model of Albright (Radiat. Res., 112, 331-340 (1987)), and the survival curves shown in the figures represent the best fit curves for the experimental data points. Sensitizer enhancement ratios (SER) were calculated by dividing the radiation dose for control hypoxic conditions by the radiation dose for various agents under hypoxic conditions at the 1% surviving fraction level.
Radiation survival curves for V79 cells exposed to varying concentrations of DEA/NO and various DEA/NO decomposition products under hypoxic conditions (metabolic hypoxia induction) are shown in FIG. 1A, which is a graph of the surviving fraction versus dose (Gy).

In another test the test system is C3H mice. As to the kind of experiment: Protection of mice from whole body irradiation. The format is in vivo. To be noted: for Percent survival of mice at 30 days: 1100 cGy. The source says:
Female C3H mice were obtained from the Frederick Cancer Research Center--Animal Production in Frederick, Md. C3H mice have been used in whole body irradiation studies since 1948 (Patt, et al., Science, 110, 213-214 (1949)) and are considered to serve as good models for predicting the effects of radiation in humans.
C3H mice were received at six weeks of age and were housed five per cage in climate-controlled, circadian rhythm-adjusted rooms and allowed food and water ad libitum. The animals were 60-80 days old at the time of radiation. A total of 10-15 mice were used per radiation dose. Mice were weighed in groups of five. The weights of each group ranged from 110 grams to 135 grams or an average weight of 22-27 grams per mouse.
In all experiments drugs and diluent (in control mice) were injected intraperitoneally into mice in volumes equivalent to 1% of each animal's weight (0.22 to 0.27 ml). Groups of 5-10 mice were placed in round (30.5 cm diameter and 10.5 cm height) Plexiglas containers with holes for ventilation for irradiation. The irradiator was calibrated with thermoluminescent dosimetry chips planted in phantom mice, and the radiation dose was determined according to previously described methodology (Cameron et al., "Thermoluminescent Dosimetry" (Univ. of Wisconsin Press, Madison, Wis., 1968)). The dose rate used was 1 Gy/min. Total time of irradiation varied as a function of the dose delivered. Immediately after irradiation, the mice were separated into groups of five and returned to climate-controlled cages for observation. The mice were assessed daily for survival.
The results are shown in FIG. 7, which is a graph of percent surviving versus days after irradiation with 11 Gy for control mice (.box-solid., n=10), which were injected with saline, mice treated with DEA/NO 10 minutes prior to irradiation (.largecircle., n=15), and mice treated with DEA/NO 30 minutes prior to irradiation (.circle-solid., n=15).

For the compound `CCN(CC)/[N+]([O-])=N/[O-].[Na+]` [DEA/NO], the extent of radiosensitization entry in test [1] (0.1 mM) was “modest”; in test [1] (0.5 and 1.0 mM) it was “significant enhancement was observed”. Moreover, the SER in test [1] (0.10 mM, ± SD) was found to be 1.1 ± 0.06; in test [1] (0.50 mM, ± SD), 2.1 ± 0.40; in test [1] (1.00 mM) it was 2.4; in test [1] (2.00 mM, ± SD) it was 2.9±0.4. Further, in test [1] (2.0 mM), the “effectiveness in eliminating radiation resistance due to hypoxia” value was “just as effective as oxygen in eliminating radiation resistance due to hypoxia”. The “protection from whole body irradiation” value with C3H mice (80 mg/kg i.p. before irradiation) is on record as “protected mice from whole-body irradiation”. Besides, the “Percent survival of mice at 30 days” value in the test on C3H mice (80 mg/kg i.p. 10 min before) is 44%; in the test on C3H mice (80 mg/kg i.p. 30 min before), 60%.
